Reference: PubChem BioAssay AID2060903 (Molecular Pharmacology Branch, DTP, NCI, 2025)

System: 377384-186-R-J1-PDC complex spheroid viability
Assay: Anticancer human tumor 377384-186-R-J1-PDC patient-derived pancreatic carcinoma cell line growth inhibition [RAS]
Details: for IC50: curve of first compound; for viability, T/C: stronger effect = lower value
In short: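 Agents were tested in combination matrices in half-log decrements from a top concentration at or near clinical Cmax (10 microM if undetermined). Targets were multi-cell spheroids of tumour lines plus HUVEC and MSC stromal cells.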

[1] = second compound 0.00316 µM, first compound 0.00316 µM
[2] = second compound 0.00316 µM, first compound 0.01 µM
[3] = second compound 0.00316 µM, first compound 0.0316 µM
[4] = second compound 0.00316 µM, first compound 0.1 µM
[5] = second compound 0.00316 µM, first compound 0.316 µM
[6] = second compound 0.00316 µM, first compound 1 µM
[7] = second compound 0.01 µM, first compound 0.00316 µM
[8] = second compound 0.01 µM, first compound 0.01 µM
[9] = second compound 0.01 µM, first compound 0.0316 µM
[10] = second compound 0.01 µM, first compound 0.1 µM
[11] = second compound 0.01 µM, first compound 0.316 µM
[12] = second compound 0.01 µM, first compound 1 µM
[13] = second compound 0.0316 µM, first compound 0.00316 µM
[14] = second compound 0.0316 µM, first compound 0.01 µM
[15] = second compound 0.0316 µM, first compound 0.0316 µM
[16] = second compound 0.0316 µM, first compound 0.1 µM
[17] = second compound 0.0316 µM, first compound 0.316 µM
[18] = second compound 0.0316 µM, first compound 1 µM
[19] = second compound 0.1 µM, first compound 0.00316 µM
[20] = second compound 0.1 µM, first compound 0.01 µM
[21] = second compound 0.1 µM, first compound 0.0316 µM
[22] = second compound 0.1 µM, first compound 0.1 µM
[23] = second compound 0.1 µM, first compound 0.316 µM
[24] = second compound 0.1 µM, first compound 1 µM
[25] = second compound 0.316 µM, first compound 0.00316 µM
[26] = second compound 0.316 µM, first compound 0.01 µM
[27] = second compound 0.316 µM, first compound 0.0316 µM
[28] = second compound 0.316 µM, first compound 0.1 µM
[29] = second compound 0.316 µM, first compound 0.316 µM
[30] = second compound 0.316 µM, first compound 1 µM
[31] = second compound 1 µM, first compound 0.00316 µM
[32] = second compound 1 µM, first compound 0.01 µM
[33] = second compound 1 µM, first compound 0.0316 µM
[34] = second compound 1 µM, first compound 0.1 µM
[35] = second compound 1 µM, first compound 0.316 µM
[36] = second compound 1 µM, first compound 1 µM
[37] = second compound 0.000949 µM, first compound 0.0316 µM
[38] = second compound 0.000949 µM, first compound 0.1 µM
[39] = second compound 0.000949 µM, first compound 0.316 µM
[40] = second compound 0.000949 µM, first compound 1 µM
[41] = second compound 0.000949 µM, first compound 3.16 µM
[42] = second compound 0.000949 µM, first compound 10 µM
[43] = second compound 0.003 µM, first compound 0.0316 µM
[44] = second compound 0.003 µM, first compound 0.1 µM
[45] = second compound 0.003 µM, first compound 0.316 µM
[46] = second compound 0.003 µM, first compound 1 µM
[47] = second compound 0.003 µM, first compound 3.16 µM
[48] = second compound 0.003 µM, first compound 10 µM
[49] = second compound 0.00949 µM, first compound 0.0316 µM
[50] = second compound 0.00949 µM, first compound 0.1 µM
[51] = second compound 0.00949 µM, first compound 0.316 µM
[52] = second compound 0.00949 µM, first compound 1 µM
[53] = second compound 0.00949 µM, first compound 3.16 µM
[54] = second compound 0.00949 µM, first compound 10 µM
[55] = second compound 0.03 µM, first compound 0.0316 µM
[56] = second compound 0.03 µM, first compound 0.1 µM
[57] = second compound 0.03 µM, first compound 0.316 µM
[58] = second compound 0.03 µM, first compound 1 µM
[59] = second compound 0.03 µM, first compound 3.16 µM
[60] = second compound 0.03 µM, first compound 10 µM
[61] = second compound 0.0949 µM, first compound 0.0316 µM
[62] = second compound 0.0949 µM, first compound 0.1 µM
[63] = second compound 0.0949 µM, first compound 0.316 µM
[64] = second compound 0.0949 µM, first compound 1 µM
[65] = second compound 0.0949 µM, first compound 3.16 µM
[66] = second compound 0.0949 µM, first compound 10 µM
[67] = second compound 0.3 µM, first compound 0.0316 µM
[68] = second compound 0.3 µM, first compound 0.1 µM
[69] = second compound 0.3 µM, first compound 0.316 µM
[70] = second compound 0.3 µM, first compound 1 µM
[71] = second compound 0.3 µM, first compound 3.16 µM
[72] = second compound 0.3 µM, first compound 10 µM
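Further: spheroids exposed to compounds for seven days before readout.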

## Nc1ccn(C2OC(CO)C(O)C2(F)F)c(=O)n1 (stereo not drawn) + C=CC(=O)N1CCN(c2nc(OCC3CCCN3C)nc3c(F)c(-c4nc(N)cc(C)c4C(F)(F)F)c(Cl)cc23)C(C)C1
Second compound 0.00316 µM
  IC50: 6.73 nM
Second compound 0.01 µM
  IC50: 7.09 nM
Second compound 0.0316 µM
  IC50: 6.58 nM
Second compound 0.1 µM
  IC50: 5.53 nM
Second compound 0.316 µM
  IC50: 7.31 nM
Second compound 1 µM
  IC50: 6.18 nM
[1]
  viability, T/C: 76.9%
[2]
  viability, T/C: 35.9%
[3]
  viability, T/C: 11.5%
[4]
  viability, T/C: 4.72%
[5]
  viability, T/C: 3.54%
[6]
  viability, T/C: 2.18%
[7]
  viability, T/C: 81.7%
[8]
  viability, T/C: 36.5%
[9]
  viability, T/C: 13.4%
[10]
  viability, T/C: 4.91%
[11]
  viability, T/C: 3.97%
[12]
  viability, T/C: 3.71%
[13]
  viability, T/C: 74%
[14]
  viability, T/C: 36.3%
[15]
  viability, T/C: 9.49%
[16]
  viability, T/C: 4.74%
[17]
  viability, T/C: 3.22%
[18]
  viability, T/C: 2.97%
[19]
  viability, T/C: 60.4%
[20]
  viability, T/C: 38.9%
[21]
  viability, T/C: 12%
[22]
  viability, T/C: 3.63%
[23]
  viability, T/C: 3.27%
[24]
  viability, T/C: 2.81%
[25]
  viability, T/C: 80.5%
[26]
  viability, T/C: 38.5%
[27]
  viability, T/C: 13.1%
[28]
  viability, T/C: 4.24%
[29]
  viability, T/C: 3.5%
[30]
  viability, T/C: 3.38%
[31]
  viability, T/C: 65.3%
[32]
  viability, T/C: 38.8%
[33]
  viability, T/C: 16.7%
[34]
  viability, T/C: 5.53%
[35]
  viability, T/C: 4.43%
[36]
  viability, T/C: 4.1%

## CCN1CCN(Cc2ccc(Nc3ncc(F)c(-c4cc(F)c5nc(C)n(C(C)C)c5c4)n3)nc2)CC1 + C=CC(=O)N1CCN(c2nc(OCC3CCCN3C)nc3c(F)c(-c4nc(N)cc(C)c4C(F)(F)F)c(Cl)cc23)C(C)C1
Second compound 0.00316 µM
  IC50: 210 nM
Second compound 0.01 µM
  IC50: 181 nM
Second compound 0.0316 µM
  IC50: 152 nM
Second compound 0.1 µM
  IC50: 210 nM
Second compound 0.316 µM
  IC50: 223 nM
Second compound 1 µM
  IC50: 306 nM
[1]
  viability, T/C: 87.5%
[2]
  viability, T/C: 77.2%
[3]
  viability, T/C: 68.7%
[4]
  viability, T/C: 56.6%
[5]
  viability, T/C: 45.4%
[6]
  viability, T/C: 40.4%
[7]
  viability, T/C: 91.4%
[8]
  viability, T/C: 79.8%
[9]
  viability, T/C: 73.3%
[10]
  viability, T/C: 52.1%
[11]
  viability, T/C: 46.8%
[12]
  viability, T/C: 40.2%
[13]
  viability, T/C: 89.4%
[14]
  viability, T/C: 81.8%
[15]
  viability, T/C: 73.6%
[16]
  viability, T/C: 53.6%
[17]
  viability, T/C: 42.5%
[18]
  viability, T/C: 36.6%
[19]
  viability, T/C: 82.1%
[20]
  viability, T/C: 78%
[21]
  viability, T/C: 70.7%
[22]
  viability, T/C: 59%
[23]
  viability, T/C: 44.6%
[24]
  viability, T/C: 38.7%
[25]
  viability, T/C: 85.6%
[26]
  viability, T/C: 79.2%
[27]
  viability, T/C: 77%
[28]
  viability, T/C: 58.9%
[29]
  viability, T/C: 46.3%
[30]
  viability, T/C: 39.8%
[31]
  viability, T/C: 95.1%
[32]
  viability, T/C: 75.4%
[33]
  viability, T/C: 73.6%
[34]
  viability, T/C: 57.5%
[35]
  viability, T/C: 46.1%
[36]
  viability, T/C: 45.9%

## CC(Nc1ccc2c(c1)OCCn1cc(N3C(=O)OCC3C(F)F)nc1-2)C(N)=O (stereo not drawn) + CCn1c(-c2cc(N3CCN(C)CC3)cnc2C(C)OC)c2c3cc(ccc31)-c1csc(n1)CC(NC(=O)C1CC1C)C(=O)N1CCCC(N1)C(=O)OCC(C)(C)C2
Second compound 0.000949 µM
  IC50: < 31.6 nM
Second compound 0.003 µM
  IC50: < 31.6 nM
Second compound 0.00949 µM
  IC50: < 31.6 nM
Second compound 0.03 µM
  IC50: < 31.6 nM
Second compound 0.0949 µM
  IC50: < 31.6 nM
Second compound 0.3 µM
  IC50: < 31.6 nM
[37]
  viability, T/C: 38.5%
[38]
  viability, T/C: 27%
[39]
  viability, T/C: 20.7%
[40]
  viability, T/C: 14.9%
[41]
  viability, T/C: 15.3%
[42]
  viability, T/C: 10%
[43]
  viability, T/C: 16.6%
[44]
  viability, T/C: 13.9%
[45]
  viability, T/C: 6.73%
[46]
  viability, T/C: 6.02%
[47]
  viability, T/C: 4.06%
[48]
  viability, T/C: 4.35%
[49]
  viability, T/C: 4.34%
[50]
  viability, T/C: 2.53%
[51]
  viability, T/C: 3.61%
[52]
  viability, T/C: 1.94%
[53]
  viability, T/C: 1.23%
[54]
  viability, T/C: 0.59%
[55]
  viability, T/C: 1.88%
[56]
  viability, T/C: 1.58%
[57]
  viability, T/C: 0.84%
[58]
  viability, T/C: 0.45%
[59]
  viability, T/C: 0.4%
[60]
  viability, T/C: 0.18%
[61]
  viability, T/C: 1.11%
[62]
  viability, T/C: 0.55%
[63]
  viability, T/C: 0.59%
[64]
  viability, T/C: 0.36%
[65]
  viability, T/C: 0.09%
[66]
  viability, T/C: 0.09%
[67]
  viability, T/C: 1.13%
[68]
  viability, T/C: 0.5%
[69]
  viability, T/C: 0.4%
[70]
  viability, T/C: 0.29%
[71]
  viability, T/C: 0.21%
[72]
  viability, T/C: 0.14%

## CCC(CC)c1cc(NC2CCC(N)C2)n2nccc2n1 (stereo not drawn) + CCn1c(-c2cccnc2C(C)OC)c2c3cc(ccc31)N1CCOC(CC(NC(=O)C(C(C)C)N(C)C(=O)C3(F)CCN(C(=O)C#CC(C)(C)N(C)C)CC3)C(=O)N3CCCC(N3)C(=O)OCC(C)(C)C2)C1
Second compound 0.000949 µM
  IC50: 1720 nM
Second compound 0.003 µM
  IC50: 1580 nM
Second compound 0.00949 µM
  IC50: 1600 nM
Second compound 0.03 µM
  IC50: 1540 nM
Second compound 0.0949 µM
  IC50: 1230 nM
Second compound 0.3 µM
  IC50: 851 nM
[37]
  viability, T/C: 101%
[38]
  viability, T/C: 96.9%
[39]
  viability, T/C: 115%
[40]
  viability, T/C: 91.9%
[41]
  viability, T/C: 2.57%
[42]
  viability, T/C: 3.88%
[43]
  viability, T/C: 109%
[44]
  viability, T/C: 115%
[45]
  viability, T/C: 108%
[46]
  viability, T/C: 81%
[47]
  viability, T/C: 2.93%
[48]
  viability, T/C: 3.96%
[49]
  viability, T/C: 90.4%
[50]
  viability, T/C: 114%
[51]
  viability, T/C: 120%
[52]
  viability, T/C: 82.3%
[53]
  viability, T/C: 3.02%
[54]
  viability, T/C: 4.29%
[55]
  viability, T/C: 104%
[56]
  viability, T/C: 99%
[57]
  viability, T/C: 107%
[58]
  viability, T/C: 77.6%
[59]
  viability, T/C: 3.09%
[60]
  viability, T/C: 4.72%
[61]
  viability, T/C: 90.8%
[62]
  viability, T/C: 91.5%
[63]
  viability, T/C: 95.8%
[64]
  viability, T/C: 60.1%
[65]
  viability, T/C: 3.31%
[66]
  viability, T/C: 4.2%
[67]
  viability, T/C: 94%
[68]
  viability, T/C: 86.1%
[69]
  viability, T/C: 86.3%
[70]
  viability, T/C: 44.2%
[71]
  viability, T/C: 3.73%
[72]
  viability, T/C: 3.93%
